{
  "source": "paper PMC11912224",
  "about": "“A general approach for activity-based protein profiling of oxidoreductases with redox-differentiated diarylhalonium warheads” (Chemical Science, 2025)",
  "key": {"CHO (choline oxidase)": {"target": "T1, CHO (choline oxidase) (Glutamicibacter nicotianae, UniProt A0ABQ0RMK5)", "T1 construct": "gene ANI01nite_22550; recombinant; FAD enzyme; details not in main text", "T1 sequence (A0ABQ0RMK5 1-523)": "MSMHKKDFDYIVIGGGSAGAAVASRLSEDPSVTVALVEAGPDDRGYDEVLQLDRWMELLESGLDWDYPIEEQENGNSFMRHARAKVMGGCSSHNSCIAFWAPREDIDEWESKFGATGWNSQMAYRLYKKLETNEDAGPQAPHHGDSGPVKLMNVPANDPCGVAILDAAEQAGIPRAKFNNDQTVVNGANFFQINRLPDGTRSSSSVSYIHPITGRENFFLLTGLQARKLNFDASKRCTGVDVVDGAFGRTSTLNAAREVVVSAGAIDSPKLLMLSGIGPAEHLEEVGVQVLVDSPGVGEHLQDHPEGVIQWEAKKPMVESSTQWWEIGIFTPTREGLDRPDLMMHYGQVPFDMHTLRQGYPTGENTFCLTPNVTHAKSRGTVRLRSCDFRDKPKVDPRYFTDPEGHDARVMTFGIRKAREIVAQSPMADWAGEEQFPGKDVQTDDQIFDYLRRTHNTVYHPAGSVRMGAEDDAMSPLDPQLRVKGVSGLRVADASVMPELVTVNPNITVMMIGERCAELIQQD", "assay": "activity-based labelling, in-gel fluorescence", "type": "binding", "conditions": "covalent; 30 uM probe, 1 h"}, "EUOX (eugenol oxidase)": {"target": "T2, EUOX (eugenol oxidase) (Rhodococcus jostii, UniProt Q0SBK1)", "T2 construct": "gene RHA1_ro03282; recombinant; FAD enzyme; details not in main text", "T2 sequence (Q0SBK1 1-526)": "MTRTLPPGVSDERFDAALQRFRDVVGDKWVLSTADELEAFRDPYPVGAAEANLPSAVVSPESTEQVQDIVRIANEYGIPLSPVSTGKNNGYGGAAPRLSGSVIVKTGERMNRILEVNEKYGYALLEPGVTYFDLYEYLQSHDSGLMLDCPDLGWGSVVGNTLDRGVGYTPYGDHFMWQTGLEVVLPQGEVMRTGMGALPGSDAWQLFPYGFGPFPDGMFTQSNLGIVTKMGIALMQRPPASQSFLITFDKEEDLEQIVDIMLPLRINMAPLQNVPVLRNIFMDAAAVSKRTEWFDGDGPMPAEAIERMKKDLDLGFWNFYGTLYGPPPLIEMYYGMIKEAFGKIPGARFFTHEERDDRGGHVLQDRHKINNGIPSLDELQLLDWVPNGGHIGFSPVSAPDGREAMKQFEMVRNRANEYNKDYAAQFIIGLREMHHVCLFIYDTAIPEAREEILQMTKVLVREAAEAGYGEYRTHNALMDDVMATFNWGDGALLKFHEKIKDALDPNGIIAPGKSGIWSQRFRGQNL", "assay": "activity-based labelling, in-gel fluorescence", "type": "binding", "conditions": "covalent; 30 uM probe, 1 h"}, "CYP3A25": {"target": "T3, CYP3A25 (Mus musculus, UniProt O09158)", "T3 construct": "native, in intact mouse liver pieces", "T3 sequence (O09158 1-503)": "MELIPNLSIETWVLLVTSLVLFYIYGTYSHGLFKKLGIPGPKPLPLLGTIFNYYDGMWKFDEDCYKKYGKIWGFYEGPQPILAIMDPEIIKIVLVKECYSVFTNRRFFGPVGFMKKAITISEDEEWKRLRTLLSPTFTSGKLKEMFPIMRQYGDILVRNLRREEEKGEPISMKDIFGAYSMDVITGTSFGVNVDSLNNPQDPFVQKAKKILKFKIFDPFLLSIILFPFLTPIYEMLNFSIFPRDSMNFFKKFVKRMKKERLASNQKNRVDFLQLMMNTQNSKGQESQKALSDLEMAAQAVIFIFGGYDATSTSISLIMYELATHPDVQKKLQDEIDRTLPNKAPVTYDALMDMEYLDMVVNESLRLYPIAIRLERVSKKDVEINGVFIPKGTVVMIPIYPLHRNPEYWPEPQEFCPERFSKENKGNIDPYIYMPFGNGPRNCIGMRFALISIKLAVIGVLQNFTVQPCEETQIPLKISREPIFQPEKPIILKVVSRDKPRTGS", "assay": "covalent labelling, streptavidin enrichment, LC-MS/MS", "conditions": "30 uM probe, 1 h, mouse liver pieces"}, "[1]": {"target": "T4, ALDH2 (aldehyde dehydrogenase 2, recombinant human) (Homo sapiens, UniProt P05091)", "T4 construct": "recombinant", "T4 sequence (P05091 18-517)": "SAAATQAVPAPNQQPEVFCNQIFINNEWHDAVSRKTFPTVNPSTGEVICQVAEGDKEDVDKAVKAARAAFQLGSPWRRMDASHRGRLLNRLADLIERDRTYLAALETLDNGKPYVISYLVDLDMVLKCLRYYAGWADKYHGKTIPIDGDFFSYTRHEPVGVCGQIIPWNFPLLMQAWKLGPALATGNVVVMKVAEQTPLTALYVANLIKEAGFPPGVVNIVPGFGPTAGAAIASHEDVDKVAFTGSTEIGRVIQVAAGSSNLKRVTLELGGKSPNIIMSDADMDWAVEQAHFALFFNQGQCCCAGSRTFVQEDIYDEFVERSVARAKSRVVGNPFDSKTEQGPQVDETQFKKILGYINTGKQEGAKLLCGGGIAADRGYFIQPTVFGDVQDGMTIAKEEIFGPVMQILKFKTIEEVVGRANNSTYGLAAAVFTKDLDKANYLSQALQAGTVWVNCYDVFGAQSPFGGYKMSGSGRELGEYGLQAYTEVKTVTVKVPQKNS", "assay": "activity-based labelling, in-gel fluorescence", "type": "binding", "conditions": "covalent; 30 uM probe, 1 h"}, "[2]": {"target": "T5, retinol dehydrogenase RDH16 (Mus musculus, UniProt O54909)", "T5 construct": "native, in intact mouse liver pieces", "T5 sequence (O54909 1-317)": "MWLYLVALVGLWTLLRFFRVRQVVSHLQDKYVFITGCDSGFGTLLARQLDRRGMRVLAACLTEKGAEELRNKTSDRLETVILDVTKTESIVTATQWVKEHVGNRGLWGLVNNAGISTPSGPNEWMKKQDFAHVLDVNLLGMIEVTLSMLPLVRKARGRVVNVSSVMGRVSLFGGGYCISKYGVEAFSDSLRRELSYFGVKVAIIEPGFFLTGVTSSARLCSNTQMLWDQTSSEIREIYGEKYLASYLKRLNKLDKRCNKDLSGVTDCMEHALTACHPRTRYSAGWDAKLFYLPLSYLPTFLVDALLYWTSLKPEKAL", "assay": "covalent labelling, streptavidin enrichment, LC-MS/MS", "conditions": "30 uM probe, 1 h, mouse liver pieces"}, "heme oxygenase 2 (HMOX2)": {"target": "T6, heme oxygenase 2 (HMOX2) (Mus musculus, UniProt O70252)", "T6 construct": "native, in intact mouse liver pieces", "T6 sequence (O70252 2-315)": "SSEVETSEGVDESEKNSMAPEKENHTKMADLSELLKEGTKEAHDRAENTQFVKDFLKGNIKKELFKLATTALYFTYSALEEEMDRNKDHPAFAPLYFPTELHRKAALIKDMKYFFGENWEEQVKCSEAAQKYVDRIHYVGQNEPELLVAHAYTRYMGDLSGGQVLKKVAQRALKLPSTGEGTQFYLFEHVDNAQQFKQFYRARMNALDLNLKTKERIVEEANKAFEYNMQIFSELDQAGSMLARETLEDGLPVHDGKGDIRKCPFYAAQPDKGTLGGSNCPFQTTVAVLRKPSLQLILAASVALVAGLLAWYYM", "assay": "covalent labelling, streptavidin enrichment, LC-MS/MS", "conditions": "30 uM probe, 1 h, mouse liver pieces"}},
  "data": [
    {"smiles": "[N-]=[N+]=NCCCCCCCCCCNC(=O)c1ccc([I+]c2ccccc2)cc1", "note": "[3aa, diphenyliodonium probe 3aa]", "values": [
      {"measurement": "activity-based labelling, in-gel fluorescence", "setting": "CHO (choline oxidase)", "result": "led to the labeling of several of the tested oxidoreductases"},
      {"measurement": "activity-based labelling, in-gel fluorescence", "setting": "EUOX (eugenol oxidase)", "result": "led to the labeling of several of the tested oxidoreductases"},
      {"measurement": "covalent labelling, streptavidin enrichment, LC-MS/MS", "setting": "CYP3A25", "result": "cytochrome P450 monooxygenases (CYP3A25, CYP27A1)"},
      {"measurement": "activity-based labelling, in-gel fluorescence", "setting": "[1]", "result": "led to the labeling of several of the tested oxidoreductases"},
      {"measurement": "covalent labelling, streptavidin enrichment, LC-MS/MS", "setting": "[2]", "result": "RDH7 and RDH16 were found to be labeled by probe 3aa very well"},
      {"measurement": "covalent labelling, streptavidin enrichment, LC-MS/MS", "setting": "heme oxygenase 2 (HMOX2)", "result": "HMOX2 was significantly enriched by diaryliodonium probes 3aa, 3ca, and 3da"}
    ]}
  ]
}
